For 31 compounds, melting point, IC50 and inhibition results are on record in patent US6528528B2 (Warner-Lambert Company, priority 1997, dated 2003).

Series [1] has as its target T1, rabbit reticulocyte 15-LO (Oryctolagus cuniculus, UniProt P12530).
T1 construct: Fifteen-lipoxygenase was obtained from phenylhydrazine-treated rabbits and purified per the method of Rapoport; from tissue; host or cells: reticulocytes of phenylhydrazine-treated rabbits
T1 sequence (P12530 1-663): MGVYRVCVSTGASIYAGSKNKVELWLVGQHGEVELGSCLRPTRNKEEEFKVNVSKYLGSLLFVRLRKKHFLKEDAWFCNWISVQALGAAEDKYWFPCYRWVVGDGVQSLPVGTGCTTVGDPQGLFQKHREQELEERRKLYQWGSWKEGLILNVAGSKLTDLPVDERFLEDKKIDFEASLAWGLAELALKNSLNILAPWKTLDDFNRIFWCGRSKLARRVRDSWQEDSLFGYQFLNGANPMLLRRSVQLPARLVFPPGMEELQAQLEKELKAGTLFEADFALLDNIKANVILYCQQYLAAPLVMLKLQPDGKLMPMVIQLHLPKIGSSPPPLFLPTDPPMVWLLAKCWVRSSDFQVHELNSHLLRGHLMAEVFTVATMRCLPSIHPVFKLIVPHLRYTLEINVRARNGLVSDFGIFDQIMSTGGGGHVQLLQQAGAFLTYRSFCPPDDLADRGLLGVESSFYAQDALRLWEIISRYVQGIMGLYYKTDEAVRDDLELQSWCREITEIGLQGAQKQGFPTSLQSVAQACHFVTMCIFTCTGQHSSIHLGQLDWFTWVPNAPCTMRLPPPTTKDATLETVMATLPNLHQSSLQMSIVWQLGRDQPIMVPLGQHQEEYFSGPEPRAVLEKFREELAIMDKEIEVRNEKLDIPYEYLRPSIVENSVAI
The series is described as follows: Rabbit Reticulocyte 15-LO Assay (h15LO). Format: biochemical. Conditions: Table 2; for IC50: 2U rabbit reticulocyte 15-LO, 174 μM linoleic acid, 15 minutes at 4° C.; for inhibition at 10 µM: 0.25 h, read-out: h15LO % @ 10 μM. The procedure, abridged:
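Linoleic acid oxidation to 13-HPODE measured at 4° C. over 15 minutes, using 174 μM substrate and 2U enzyme purified from phenylhydrazine-treated rabbits in PBS/0.2% Na cholate. Product peak areas calibrated with authentic 13-HODE; inhibition expressed versus maximal reaction.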

For orientation: melting point means the temperature, or range, at which the solid turns liquid. As a reminder, the IC50 is the concentration that gives 50% inhibition. Low values mean greater potency, high ones weaker potency. `COc1ccc(C(=O)Nc2ccccc2)cc1NCc1ccccc1` [Example 50, 3-Benzylamino-4-methoxy-N-phenyl-benzamide] showed a melting point of 164 to 165 °C. The same compound gave an IC50 in series [1] of 846 nM.
`COc1ccc(C(=O)Nc2ccccc2)cc1NCc1ccc(OC)c(OC)c1` [Example 52, 3-(3,4-Dimethoxy-benzylamino)-4-methoxy-N-phenyl-benzamide] showed a melting point of 187 to 188 °C. Moreover, in series [1], the inhibition at 10 µM stood at 62%.
In the case of `O=C(Nc1ccccc1)c1cccc(Oc2ccccc2)c1` [Example 53, 3-Phenoxy-N-phenyl-benzamide], the melting point was in the range of 111 to 112 °C. Also, the inhibition at 10 µM in series [1] amounted to 57%.
In the same order, the values of `COc1ccc(C(=O)Nc2ccccc2)cc1Oc1ccccc1` [Example 54, 3-Phenoxy-4-methoxy-N-phenyl-benzamide] are 200 to 201 °C and 60%.
The corresponding values for `COc1ccc(C(=O)Oc2ccccc2)cc1Nc1ccccc1` [Example 55, 3-(Phenylamino)-4-methoxybenzoic Acid, Phenyl Ester] are 130 to 131 °C and 54%.
For `COc1ccc(NC(=O)c2ccc(O)c(Nc3cc(Cl)cc(Cl)c3)c2)cc1` [Example 57, 3-(3,5-Dichloro-phenylamino)-4-hydroxy-N-(4-methoxyphenyl)-benzamide], the melting point lay in the range of 186 to 187 °C. In addition, half-maximal inhibition in series [1] (IC50) was put at 165 nM.
In turn, `Cc1ccc(NC(=O)c2ccc(O)c(Nc3cc(Cl)cc(Cl)c3)c2)cc1` [Example 58, 3-(3,5-Dichloro-phenylamino)-4-hydroxy-N-(4-methylphenyl)-benzamide] displayed a melting point of 179 to 183 °C. In series [1], this compound yielded an IC50 of 80 nM.
In turn, `COc1ccc(NC(=O)c2ccc(O)c(Nc3cc(Cl)cc(Cl)c3)c2)cc1O` [Example 59, 3-(3,5-Dichloro-phenylamino)-4-hydroxy-N-(3-hydroxy-4-methoxyphenyl)-benzamide] registered a melting point of 170 to 171 °C. The compound further had an IC50 in series [1] of 1460 nM.
In the same order, the values of `COc1ccc(C(=O)Nc2ccccc2)cc1NC(=S)Nc1cccc(Cl)c1` [Example 61, 3-[3-(3-Chlorophenyl)-thioureido]-4-methoxy-N-phenyl-benzamide] are 165 to 168 °C and 11 nM.
In turn, `COc1ccc(C(=O)Nc2ccccc2)cc1NC(=S)Nc1ccccc1` [Example 62, 4-Methoxy-N-phenyl-3-(3-phenyl-thioureido)-benzamide] had a melting point of 174 to 176 °C. Besides, the IC50 in series [1] amounted to 70 nM.
Turning to `COc1ccc(C(=O)Nc2ccccc2)cc1NC(=S)Nc1ccc(C(F)(F)F)cc1` [Example 63, 4-Methoxy-N-phenyl-3-[3-(4-trifluoromethyl-phenyl)-thioureido]-benzamide], the melting point is 194 to 196 °C. The compound also came in with an IC50 in series [1] of 49 nM.
`COc1ccc(C(=O)Nc2ccccc2)cc1NC(=S)Nc1ccc(C(C)(C)C)cc1` [Example 64, 3-[3-(4-tert-Butyl-phenyl)-thioureido]-4-methoxy-N-phenyl-benzamide] had a melting point of 198 to 200 °C. The compound also had a 50% inhibitory concentration (IC50) in series [1] of 41 nM.
Compound `O=C(Nc1ccccc1)c1cccc(NC(=S)Nc2cc(Cl)cc(Cl)c2)c1` [Example 70, 3-[3-(3,5-Dichlorophenyl)-thioureido]-N-phenyl-benzamide] displayed a melting point of 174 to 177 °C. It took 500 nM to reach half-maximal inhibition in series [1] (IC50).
The corresponding values for `Cc1ccc(C(=O)Nc2ccccc2)cc1NC(=S)Nc1cc(Cl)cc(Cl)c1` [Example 71, 3-[3-(3,5-Dichlorophenyl)-thioureido]-4-methyl-N-phenyl-benzamide] are 182 to 184 °C and 526 nM.
`COc1ccc(C(=O)Nc2ccccc2)cc1NC(=S)Nc1ccc(OC)c(OC)c1` [Example 72, 3-[3-(3,4-Dimethoxyphenyl)-thioureido]-4-methoxy-N-phenyl-benzamide] gave a melting point of 170 to 171 °C. The same compound registered an IC50 in series [1] of 56 nM.
In the same order, the values of `COc1ccc(C(=O)Nc2ccccc2)cc1NC(=S)Nc1cccc(C#N)c1` [Example 74, 3-[3-(3-Cyanophenyl)-thioureido]-4-methoxy-N-phenyl-benzamide] are 183 to 185 °C and 14.9 nM.
The corresponding values for `COc1ccc(C(=O)Nc2ccccc2)cc1NC(=S)Nc1cccc(C(C)=O)c1` [Example 76, 3-[3-(3-Acetyl-phenyl)-thioureido]-4-methoxy-N-phenyl-benzamide] are 176 to 177 °C and 48 nM.
In the same order, the values of `COc1ccc(C(=O)Nc2ccccc2)cc1NC(=S)Nc1ccc(Cl)c([N+](=O)[O-])c1` [Example 77, 3-[3-(4-Chloro-3-nitrophenyl)-thioureido]-4-methoxy-N-phenyl-benzamide] are 174 to 175 °C and 11 nM.
With `COc1ccc(C(=O)Nc2ccccc2)cc1NC(=S)Nc1ccc(F)cc1` [Example 78, 3-[3-(4-Fluorophenyl)-thioureido]-4-methoxy-N-phenyl-benzamide], the melting point lay in the range of 182 to 183 °C. In addition, in series [1], half-maximal inhibition (IC50) was put at 390 nM.
The compound `COc1ccc(NC(=O)c2ccc(OC)c(NC(=S)Nc3cc(Cl)cc(Cl)c3)c2)cc1` [Example 79, 3-[3-(3,5-Dichlorophenyl)-thioureido]-4-methoxy-N-(4-methoxy-phenyl)-benzamide] displayed a melting point of 175 to 182 °C. The half-maximal inhibitory concentration (IC50) in series [1] was found to be 127 nM.
In the same order, the values of `CCOc1ccc(C(=O)Nc2ccccc2)cc1NC(=S)Nc1cc(Cl)cc(Cl)c1` [Example 80, 3-[3-(3,5-Dichlorophenyl)-thioureido]-4-ethoxy-N-phenyl-benzamide] are 201 to 202 °C and 39 nM.
In the same order, the values of `COc1ccc(C(=O)Nc2ccccc2)cc1NC(=S)Nc1cccnc1` [Example 81, 4-Methoxy-N-phenyl-3-(3-pyridin-3-yl-thioureido)-benzamide] are 178 to 179 °C and 19 nM.
In the same order, the values of `COc1ccc(C(=O)Nc2ccccc2)cc1NC(=S)Nc1ccc(S(=O)(=O)O)cc1` [Example 82, 4-[3-(2-Methoxy-5-phenylcarbamoyl-phenyl)-thioureido]-benzenesulfonic Acid] are over 280 °C and 124 nM.
Turning to `COc1ccc(NC(=S)Nc2cc(C(=O)Nc3ccccc3)ccc2OC)cc1` [Example 83, 4-Methoxy-3-[3-(4-methoxy-phenyl)-thioureido]-N-phenyl-benzamide], the melting point is 168 to 169 °C. Also, in series [1], the IC50 was 81 nM.
In the same order, the values of `COc1ccc(C(=O)Nc2ccccc2)cc1NC(=S)Nc1cccc(C(F)(F)F)c1` [Example 84, 4-Methoxy-N-phenyl-3-[3-(3-trifluoromethyl-phenyl)-thioureido]-benzamide] are 177 to 178 °C and 20 nM.
Compound `COc1ccc(C(=O)Nc2ccccc2)cc1NC(=S)Nc1ccc(Cl)c(Cl)c1` [Example 85, 3-[3-(3,4-Dichlorophenyl)-thioureido]-4-methoxy-N-phenyl-benzamide] yielded a melting point of 174 to 175 °C. The compound further showed an IC50 in series [1] of 20 nM.
The corresponding values for `COc1ccc(NC(=O)Nc2ccccc2)cc1NC(=S)Nc1cc(Cl)cc(Cl)c1` [Example 86, 1-{3-[3-(3,5-Dichlorophenyl)-thioureido]-4-methoxyphenyl}-3-phenyl-urea] are 218 to 219 °C and 260 nM.
In the same order, the values of `COc1ccc(NC(=O)c2ccccc2)cc1NC(=S)Nc1cc(Cl)cc(Cl)c1` [Example 87, N-{^3-[^3-(3,5-Dichlorophenyl)-thioureido]-4-methoxy-phenyl}-benzamide] are 194 to 195 °C and 102 nM.
The corresponding values for `COc1ccc(C(=O)Nc2ccccc2)cc1NC(=S)Nc1ccc([N+](=O)[O-])cc1` [Example 88, 4-Methoxy-3-[3-(4-nitrophenyl)-thioureido]-N-phenyl-benzamide] are 183 to 184 °C and 33 nM.
For `COc1ccc(C(=O)Nc2ccccc2)cc1NC(=S)Nc1cc(C(F)(F)F)cc(C(F)(F)F)c1` [Example 89, 3-[3-(3,5-Bis-trifluoromethylphenyl)-thioureido]-4-methoxy-N-phenyl-benzamide], the melting point was 192 to 193 °C. The compound further showed a 50% inhibitory concentration (IC50) in series [1] of 35 nM.
`COc1ccc(C(=O)Nc2ccccc2)cc1NC(=S)Nc1ccc(S(N)(=O)=O)cc1` [Example 90, 4-Methoxy-N-phenyl-3-[3-(4-sulfamoyl-phenyl)-thioureido]-benzamide]: the melting point was in the range of 193 to 195 °C. The IC50 in series [1] is 24 nM.
